Laboratory results: patent US20250311689A1, “SEEDLING GERMINATION AND GROWTH CONDITIONS” (PIONEER HI-BRED INTERNATIONAL, INC., priority 2022, published 2025)
Where “and” joins values, the source holds several entries; their conditions need not be identical. Equal entries are not always repeated.

Legend:
[1] = test system: Pioneer inbred ED85E and GR013D seedlings / leaf segments; assay: Sugar (maltose) seedling pre-treatment, leaf transformation (Table 27); type: in vivo, maize
[2] = test system: Pioneer inbred ED85E seedlings / leaf segments; assay: Gibberellic acid inhibitor seedling pre-treatment, leaf transformation (Table 24); type: in vivo, maize
[3] = test system: Japonica rice (Oryza sativa var Kitaake) seedlings; assay: Ancymidol pre-treatment during seed germination and seedling growth, rice; type: in vivo
[4] = test system: teff (Eragrostis tef) seedlings; assay: Ancymidol pre-treatment during seed germination and seedling growth, teff; type: in vivo
[5] = test system: pearl millet (Pennisetum glaucum) seedlings; assay: Ancymidol pre-treatment during seed germination and seedling growth, pearl millet; type: in vivo
[6] = test system: maize inbred seedlings with pre-integrated target site 45 / leaf segments; assay: Seedling pre-treatment with ancymidol, Agrobacterium-mediated site-specific integration (Table 22); type: in vivo; conditions: 90AE medium (900 + 2 mg/l ancymidol); 30 seedlings; PHP90842:PHP93925 9:1; no untreated comparison
[7] = test system: Pioneer inbred ED85E seedlings / leaf segments; assay: Cytokinin seedling pre-treatment, leaf transformation (Table 25); type: in vivo, maize; conditions: for # T0 plants / # culture response (2 wk) / # culture response (4 wk) / T-DNA score (0-5) / TXN %: 21 seedlings, PHP97334
[8] = test system: Pioneer inbred GR0112 seedlings / leaf segments; assay: Fipexide seedling pre-treatment, leaf transformation (Table 26); type: in vivo, maize; conditions: for # culture response (2 wk) / # culture response (4 wk) / T-DNA score (0-5): 42 seedlings, PHP96277; for increase of total somatic embryo (SE) number relative to the control treatment: within the first four weeks of culture, per 42 starting seedlings
[9] = test system: Pioneer inbred GR0112 seedlings / leaf segments; assay: Norflurazon (abscisic acid biosynthesis inhibitor) seedling pre-treatment, leaf transformation (Table 28); type: in vivo, maize; conditions: for # culture response (2 wk): 2 weeks after infection
[10] = 20 mg/l maltose in place of sucrose, 90AE medium, second replicate (inbred GR013D), 30 seedlings, PHP104215
[11] = 2 mg/l in 900 germination medium, 24 seedlings, PHP101093
[12] = 4 mg/l in 900 germination medium, 24 seedlings, PHP101093
[13] = 6 mg/l in 900 germination medium, 24 seedlings, PHP101093
[14] = 250 mg/l in 90AO medium (900 + 1 mg/l ancymidol), 30 seedlings, PHP97334
[15] = 500 mg/l in 90AO medium (900 + 1 mg/l ancymidol), 30 seedlings, PHP97334
[16] = 900 medium plus 2 mg/l ancymidol
[17] = 1 mg/l in 90AE medium (+ 2 mg/l ancymidol)
[18] = 3 mg/l in 90AE medium (+ 2 mg/l ancymidol)
[19] = 4.75 mg/l in 90AE medium (+ 2 mg/l ancymidol)
[20] = 9.5 mg/l in 90AE medium (+ 2 mg/l ancymidol)
[21] = 19 mg/l in 90AE medium (+ 2 mg/l ancymidol)
[22] = 0.1 mg/l in 90AE medium (+ 2 mg/l ancymidol)
[23] = 0.5 mg/l in 90AE medium (+ 2 mg/l ancymidol)
[24] = 5 mg/l in 90AE medium (+ 2 mg/l ancymidol)

OC[C@H]1O[C@H](O[C@H]2[C@H](O)[C@@H](O)C(O)O[C@@H]2CO)[C@H](O)[C@@H](O)[C@@H]1O (mixture of isomers) [Maltose, maltose]
improvement of T0 Txn % relative to seedlings grown on 20 mg/l sucrose ([1]; 20 mg/l maltose as the carbon source, inbred GR013D): 1.3 fold
# T0 plants [1, 10]: 25
# culture response (2 wk) [1, 10]: 650
# culture response (4 wk) [1, 10]: 562
T-DNA score (0-5) [1, 10]: 4
TXN % [1, 10]: 83%

CC(C)(C)[C@@H](O)[C@@H](Cc1ccc(Cl)cc1)n1cncn1 (racemic) [PBZ, paclobutrazol]
# T0 plants [2, 11]: 60
# culture response (2 wk) [2, 11]: 271
# culture response (4 wk) [2, 11]: 224
T-DNA score (0-5) [2, 11]: 3.5
TXN % [2, 11]: 250%
# T0 plants [2, 12]: 40
# culture response (2 wk) [2, 12]: 212
# culture response (4 wk) [2, 12]: 156
T-DNA score (0-5) [2, 12]: 3.5
TXN % [2, 12]: 167%
# T0 plants [2, 13]: 29
# culture response (2 wk) [2, 13]: 151
# culture response (4 wk) [2, 13]: 99
T-DNA score (0-5) [2, 13]: 3.5
TXN % [2, 13]: 121%
trend in the T0 transformation data ([2]; concentrations tested in Table 24 (paclobutrazol 2-6 mg/l, daminozide 50-150 mg/l)): no clear trend
T0 transformation frequencies relative to the control treatment ([2]; higher concentration ranges 10, 20, 50 mg/l, stated in present tense, no data): increase

C[N+](C)(C)CCCl [Chlormequat chloride, chlormequat chloride]
# T0 plants [2, 14]: 145
# culture response (2 wk) [2, 14]: 265
# culture response (4 wk) [2, 14]: 318
T-DNA score (0-5) [2, 14]: 4.5
TXN % [2, 14]: 483%
improvement of T0 transformation frequency (Txn %) relative to the control ([2]; 250 mg/l pretreatment of ED85E seedlings): 1.4 fold
# T0 plants [2, 15]: 108
# culture response (2 wk) [2, 15]: 302
# culture response (4 wk) [2, 15]: 339
T-DNA score (0-5) [2, 15]: 4.5
TXN % [2, 15]: 360%

COc1ccc(C(O)(c2cncnc2)C2CC2)cc1 (stereo not drawn) [Ancymidol, ancymidol]
seedling height after 14 days [3, 16]: 1-2 cm
number of transgenic T0 plantlets compared to the other two treatments (0 and 2 mg/l) ([3]; 900 plus 1 mg/l ancymidol): highest
seedling height after 14 days [4, 16]: 1-2 cm
number of transgenic T0 plantlets compared to the other two treatments (0 and 2 mg/l) ([4]; 900 plus 1 mg/l ancymidol): highest
seedling height after 14 days [5, 16]: 1-2 cm
number of transgenic T0 plantlets compared to the other two treatments (0 and 2 mg/l) ([5]; 900 plus 1 mg/l ancymidol): highest
Number of: Escapes [6]: 3
Number of: Events regenerated [6]: 7
Number of: Leaf segments/pieces responded [6]: 127
Number of: Putative events [6]: 44
Number of: RMCE events [6]: 1
Number of: SSI events [6]: 3

trans-zeatin
increase of T0 Txn % relative to the control seedling germination medium with no cytokinin ([7]; 1 mg/l): 1.2 fold
# T0 plants [7, 17]: 102
# culture response (2 wk) [7, 17]: 196
# culture response (4 wk) [7, 17]: 177
T-DNA score (0-5) [7, 17]: 4
TXN % [7, 17]: 486%
increase of T0 Txn % relative to the control seedling germination medium with no cytokinin ([7]; 3 mg/l): 1.5 fold
# T0 plants [7, 18]: 130
# culture response (2 wk) [7, 18]: 192
# culture response (4 wk) [7, 18]: 222
T-DNA score (0-5) [7, 18]: 4
TXN % [7, 18]: 619%

O=C(COc1ccc(Cl)cc1)N1CCN(Cc2ccc3c(c2)OCO3)CC1 [Fipexide, fipexide]
# culture response (2 wk) [8, 19]: 768
# culture response (4 wk) [8, 19]: 829
T-DNA score (0-5) [8, 19]: 4
increase of total somatic embryo (SE) number relative to the control treatment ([8]; 4.75 mg/l): 1.4 fold
# culture response (2 wk) [8, 20]: 681
# culture response (4 wk) [8, 20]: 780
T-DNA score (0-5) [8, 20]: 3.5
increase of total somatic embryo (SE) number relative to the control treatment ([8]; 9.5 mg/l): 1.3 fold
# culture response (2 wk) [8, 21]: 636
# culture response (4 wk) [8, 21]: 733
T-DNA score (0-5) [8, 21]: 3.5
increase of total somatic embryo (SE) number relative to the control treatment ([8]; 19 mg/l): 1.2 fold

O=C(Nc1ccccc1)Nc1cnns1 [TDZ, thidiazuron]
# T0 plants [7, 22]: 99
# culture response (2 wk) [7, 22]: 169
# culture response (4 wk) [7, 22]: 121
T-DNA score (0-5) [7, 22]: 4
TXN % [7, 22]: 471%
# T0 plants [7, 23]: 97
# culture response (2 wk) [7, 23]: 182
# culture response (4 wk) [7, 23]: 122
T-DNA score (0-5) [7, 23]: 4
TXN % [7, 23]: 462%
change over the control treatment ([7]; 0.1 and 0.5 mg/l): no increase
somatic embryo response and transformation frequency (Txn %) ([7]; higher concentration ranges, such as 1, 2, 5, or 10 mg/l, stated in present tense, no data): increase

CN(C)NC(=O)CCC(=O)O [Daminozide, daminozide]
# T0 plants ([2]; in vivo): 71 and 41 and 53
# culture response (2 wk) ([2]; in vivo): 87 and 103 and 70
# culture response (4 wk) ([2]; in vivo): 99 and 103 and 95
T0 transformation frequencies relative to the control treatment ([2]; in vivo): increase
T-DNA score (0-5) ([2]; in vivo): 4
TXN % ([2]; in vivo): 355% and 205% and 265%
trend in the T0 transformation data ([2]; in vivo): no clear trend

CNc1cnn(-c2cccc(C(F)(F)F)c2)c(=O)c1Cl [norflurazon]
improvement of T0 Txn % relative to the control treatment ([9]; 0.1 mg/l norflurazon, inbred GR0112, within the first two weeks of culture after Agrobacterium infection): 1.1 fold
T-DNA score (0-5) ([9]; norflurazon 0.1 mg/l in 90AE germination medium, inbred GR0112): 4
# culture response (2 wk) ([9]; norflurazon 0.1 mg/l, 22 seedlings): 350
T-DNA score (0-5) ([9]; norflurazon 1 mg/l in 90AE germination medium, inbred GR0112): 1.5
# culture response (2 wk) ([9]; norflurazon 1 mg/l, 7 seedlings): 19
T-DNA score (0-5) ([9]; norflurazon 3 mg/l in 90AE germination medium, inbred GR0112): 2
# culture response (2 wk) ([9]; norflurazon 3 mg/l, 7 seedlings): 45

c1ccc(CNc2ncnc3nc[nH]c23)cc1 [BAP, 6-benylamino purine]
increase of T0 Txn % relative to the control seedling germination medium with no cytokinin ([7]; 1 mg/l): 1.4 fold
# T0 plants [7, 17]: 97
# culture response (2 wk) [7, 17]: 135
# culture response (4 wk) [7, 17]: 151
T-DNA score (0-5) [7, 17]: 4
TXN % [7, 17]: 462%
increase of T0 Txn % relative to the control seedling germination medium with no cytokinin ([7]; 5 mg/l): 1.8 fold
# T0 plants [7, 24]: 128
# culture response (2 wk) [7, 24]: 144
# culture response (4 wk) [7, 24]: 172
T-DNA score (0-5) [7, 24]: 4
TXN % [7, 24]: 610%
